This note sets out measurements from patent publication US20220023381A1, “VDAC INHIBITORS FOR TREATING AUTOIMMUNE DISEASES” (NATIONAL INSTITUTE FOR BIOTECHNOLOGY IN THE NEGEV LTD., priority 2018, published 2022).

No end group written: not given here.

One test deals with mtDNA (120 bp). Nature of the test: mtDNA-peptide binding (pull-down) assay. The following applies: biotinylated peptide, Streptavidin Dynabeads. The arrangement: species or system mouse. From the text: C-terminal biotinylated peptides corresponding to amino acid residues from 1 to 26 of mouse VDAC1 (SEQ ID NO:1) and a mutant peptide (SEQ ID NO:72) with acetylation (N-terminus) and amidation (C-terminus) were synthesized and purified by Genscript (Piscataway, N.J., USA). Mitochondrial DNA was amplified using PCR with mtDNA specific primer of the D-loop region. The primers used were as follow (5′-3′): mtDNA 120 bp forward (SEQ ID NO:73), and reverse (SEQ ID NO:74). Purified mtDNA (120 bp) was incubated rotating end-over-end with peptides and Streptavidin Dynabeads (Invitrogen) for 18 h at 4° C. The peptides were captured by the Streptavidin Dynabeads, and unbound peptides and free mtDNA were removed by extensive washing with PBS. The samples were treated with proteinase K for 30 min at 60° C., and the mtDNA in the supernatant was purified with QIAquick Nucleotide Removal Kit (Qiagen). The purified mtDNA was quantified using real-time RT-PCR with the D-loop3 primers.

A further test relates to TFAM^KD MEFs. Nature of the test: ISG expression in TFAM KD MEFs. In kind it is cell-based, mouse. How it is done:
The following mouse embryonic fibroblasts (MEFs) were used: VDAC1/3^−/− (MEFs) and Bak/Bax^−/− MEFs with the respective WT counterparts; WT and cGAS^−/− MEFs; WT and IRF3/IRF7^−/− MEFs; and WT and MICU1^−/− MEFs. All MEFs were grown in complete Dulbecco's modified Eagle's medium (DMEM, Corning) supplemented with 10% fetal bovine serum (FBS, Sigma-Aldrich) and 1% penicillin and streptomycin (antibiotics, Gibco) at 37° C. with 5% CO2. LMTK-1 cells were grown in complete RPMI 1640 medium (Gibco) supplemented with 10% FBS and antibiotics. The LMTK^−-derived cell line lacking mtDNA (ρ^o), LMEB-4, was grown in LMTK-1 growth medium supplemented with uridine (50 μg/ml, Sigma-Aldrich) and sodium pyruvate (1 mM, Gibco). WT (ρ^o) and EndoG^−/− (ρ^o) MEFs were generated by incubation with ethidium bromide (Invitrogen) in complete DMEM supplemented with 15% FBS, antibiotics, uridine (50 μg/ml), and pyruvate (1 mM) for 5 months. […]
Total RNA was extracted using RNeasy Plus Mini Kit (Qiagen) according to the manufacturer's instructions. […] GAPDH was used as an internal standard of mRNA expression, and the ratio of the target gene expression to GAPDH expression was calculated using LightCycler 96 Instrument software (Roche). The quality of real-time RT-PCR results was evaluated based on the melting temperature (Tm) of a DNA fragment and melting curve analysis. […]

The test system of test [1] is EndoG−/− MEFs. Put plainly: ISG expression in EndoG−/− MEFs (real-time PCR / western blot). In kind it is cell-based, mouse.
Method: Total RNA was extracted using RNeasy Plus Mini Kit (Qiagen) according to the manufacturer's instructions. The first-strand cDNA was synthesized from 2 μg purified mRNA using Accupower RT PreMix (BioNeer). The reaction mixtures were incubated at 42° C. for 60 min and 94° C. for 5 min. Real-time RT-PCR was performed using the LightCycler 96 system (Roche Life Science) with SYBR Green master mix (Roche). The primers used were as follow (5′-3′): EndoG forward (SEQ ID NO:36), and reverse (SEQ ID NO:37); Cxcl10 forward (SEQ ID NO:38), and reverse (SEQ ID NO:39); GAPDH forward (SEQ ID NO:40), and reverse (SEQ ID NO:41); Ifi44 forward (SEQ ID NO:42), and reverse (SEQ ID NO:43); Ifit1 forward (SEQ ID NO:44), and reverse (SEQ ID NO:45); Ifit3 forward (SEQ ID NO:46), and reverse (SEQ ID NO:47); IFNα4 forward (SEQ ID NO:48), and reverse (SEQ ID NO:49); IFNβ forward (SEQ ID NO:50), and reverse (SEQ ID NO:51); Iigp1 forward (SEQ ID NO:52), and reverse (SEQ ID NO:53); ISG15 forward (SEQ ID NO:54), and reverse (SEQ ID NO:55); Oasl2 forward (SEQ ID NO:56), and reverse (SEQ ID NO:57); Rsad2 forward (SEQ ID NO:58), and reverse (SEQ ID NO:59); USP18 forward (SEQ ID NO:60), and reverse (SEQ ID NO:61); VDAC1 forward (SEQ ID NO:62), and reverse (SEQ ID NO:63). GAPDH was used as an internal standard of mRNA expression, and the ratio of the target gene expression to GAPDH expression was calculated using LightCycler 96 Instrument software (Roche). The quality of real-time RT-PCR results was evaluated based on the melting temperature (Tm) of a DNA fragment and melting curve analysis.
The subject of the next test is VDAC1/3−/− MEFs. Nature of the test: ISG expression in VDAC1/3−/− MEFs. In kind it is cell-based, mouse. The following applies: treatment with Ca2+ chelator BAPTA. How it is done:
(§1) The following mouse embryonic fibroblasts (MEFs) were used: VDAC1/3^−/− (MEFs) and Bak/Bax^−/− MEFs with the respective WT counterparts; WT and cGAS^−/− MEFs; WT and IRF3/IRF7^−/− MEFs; and WT and MICU1^−/− MEFs. All MEFs were grown in complete Dulbecco's modified Eagle's medium (DMEM, Corning) supplemented with 10% fetal bovine serum (FBS, Sigma-Aldrich) and 1% penicillin and streptomycin (antibiotics, Gibco) at 37° C. with 5% CO2. LMTK-1 cells were grown in complete RPMI 1640 medium (Gibco) supplemented with 10% FBS and antibiotics. The LMTK^−-derived cell line lacking mtDNA (ρ^o), LMEB-4, was grown in LMTK-1 growth medium supplemented with uridine (50 μg/ml, Sigma-Aldrich) and sodium pyruvate (1 mM, Gibco). WT (ρ^o) and EndoG^−/− (ρ^o) MEFs were generated by incubation with ethidium bromide (Invitrogen) in complete DMEM supplemented with 15% FBS, antibiotics, uridine (50 μg/ml), and pyruvate (1 mM) for 5 months.
(§2) Total RNA was extracted using RNeasy Plus Mini Kit (Qiagen) according to the manufacturer's instructions. […] GAPDH was used as an internal standard of mRNA expression, and the ratio of the target gene expression to GAPDH expression was calculated using LightCycler 96 Instrument software (Roche). The quality of real-time RT-PCR results was evaluated based on the melting temperature (Tm) of a DNA fragment and melting curve analysis.

The subject of the next test is LMEB-4 (ρ0) cells. Nature of the test: Ifi44 expression in LMEB-4 (ρ0) cells lacking mtDNA. The note with it: 100 μM DIDS. In kind it is cell-based. How it is done:
as §1, §2

A further test concerns MICU1−/− MEFs. Nature of the test: ISG induction in MICU1−/− MEFs. The format is cell-based, mouse. The following applies: treatment with DIDS. The protocol:
as §1, §2

Test [2] concerns mitochondria from MICU1−/− MEFs. Put plainly: mtDNA release from isolated mitochondria of MICU1−/− MEFs. The arrangement: species or system mouse. The note with it: buffer lacking Ca2+, with or without DIDS. How it is done:
Therefore, it was postulated that VDAC may be increasing mtDNA release in living cells merely by increasing mitochondrial Ca^2+ and promoting PTP formation. To examine this possibility, mitochondria from MICU1^−/− MEFs, which already have elevated Ca^2+ and ROS levels (FIG. 6F), were isolated and incubated in a buffer lacking Ca^2+ either with or without DIDS.

The subject of another test is LMTK-1 (WT) cells. Put plainly: Ifi44 expression in LMTK-1 (WT) cells. In kind it is cell-based. The note with it: 100 μM DIDS. The protocol: as §1, §2
Another test concerns 143B cells. Nature of the test: Quantification of fimtDNA (free intra-mtDNA fragments). In kind it is cell-based. The protocol:
For the quantification of fimtDNA release, 143B cells were resuspended in mitochondrial isolation buffer and subsequently homogenized 30 times with pestle B (small clearance). The homogenized samples were centrifuged at 1,000 g for 10 min at 4° C. The supernatant was transferred to a new tube and centrifuged at 1,000 g for 5 min at 4° C., and the mitochondrial pellet was collected after the centrifugation of the final supernatant at 11,500 g for 10 min at 4° C. Isolated mitochondria were resuspended in 50 μl CSK buffer containing 10 mM PIPES pH 6.8, 300 mM sucrose, 100 mM NaCl, 3 mM MgCl2, 1 mM EGTA, and 0.05% Triton X-100, for 5 min on ice, and the supernatant (fimtDNA) and CSK-pellet fractions were collected after centrifugation at 17,000 g for 30 min at 4° C. A 1:20 dilution of CSK-sup was used for real-time PCR with fimtDNA primers in each reaction. The primers used were as follow (5′-3′): hfimtNDA forward (SEQ ID NO:70), and reverse (SEQ ID NO:71). CSK-pellet was resuspended in 100 μl lysis buffer containing 20 mM EDTA and proteinase K and incubated at 56° C. overnight. The digested pellet was diluted with water (1:20 to 1:100) and heated at 95° C. for 20 min to inactivate proteinase K, and the CSK-pellet fraction was used for real-time PCR in each reaction. The fimtDNA in CSK-sup was normalized to the mtDNA in CSK-pellet.

For test [3], the system named is EndoG−/− MEFs. Nature of the test: ROS levels in EndoG−/− MEFs. The note with it: Mito-TEMPO (10 μM), 3 days. In kind it is cell-based, mouse. The protocol: Cellular cGAMP levels were measured by LC/MS (Agilent Technologies) using 5% perchloric acid extracts of WT and EndoG^−/− MEFs. Intracellular ROS production in MEFs was measured using the oxidative stress indicator CM-H2DCFDA (Invitrogen) with flow cytometry (FACS). Mitochondrial ROS in MEFs was evaluated using the mitochondrial superoxide indicator MitoSOX (Invitrogen) with a confocal microscope (LSM880, Zeiss, and the fluorescence intensity was measured using Zen software (Zeiss). To quantify mitochondrial ROS in human PBMCs, the cells were obtained from heparinized blood using a Ficoll-Paque gradient. The cells were washed with PBS, resuspended in RPMI 1640 medium, and transferred to 96-well plates. Subsequently, the cells were stimulated with calcium ionophore A23187 (25 μM), VBIT-4 (5 μM), and MitoSOX (2 μM) (Life Technologies). After 1 h at 37° C., the fluorescence was measured at 510/595 nm using a microplate reader (Synergy HTX; BIOTEK). Cells without dye were used as the blank control.

Where [4] appears, read: treatment with Ca2+ chelator BAPTA.
Where [5] appears, read: DIDS (100 μM), real-time PCR and western blot.

As to “26 amino acid VDAC1 N-terminal peptide: C-terminal biotinylated peptide corresponding to amino acid residues 1 to 26 of mouse VDAC1 (MAVPPTYADLGKSARDVFTKGYGFGL-biotin)”, in the test with mtDNA (120 bp), the “pull-down of mtDNA fragment” value was “pulled-down the mtDNA fragment in dose-dependent manner”.
For the molecule `O=C(O)CN(CC(=O)O)c1ccccc1OCCOc1ccccc1N(CC(=O)O)CC(=O)O` [BAPTA], the ISG expression result in the test with TFAM^KD MEFs (setting [4]) was “decreased”; in the test on EndoG−/− MEFs [1] (setting [4]) it was “decreased”; in the test with VDAC1/3−/− MEFs it was “not”.
On to `O=S(=O)(O)c1cc(N=C=S)ccc1C=Cc1ccc(N=C=S)cc1S(=O)(=O)O` [DIDS, 4,4′-Diisothiocyanatostilbene-2,2′-disulfonate], for which the ISG expression entry in the test with TFAM^KD MEFs (setting [5]) and in the test with EndoG−/− MEFs [1] (setting [5]) was “inhibited” in each case. Also, the “ISG (Ifi44) expression” value with LMEB-4 (ρ0) cells was “not”; in the test with LMTK-1 (WT) cells, “inhibited”. The ISG induction entry in the test with MICU1−/− MEFs was “abrogated”. For the same molecule, the “mtDNA released during incubation” value in [2] is recorded as “decreased in a concentration-dependent manner”.
`CO[C@H]1C[C@@H]2CC[C@@H](C)[C@@](O)(O2)C(=O)C(=O)N2CCCC[C@H]2C(=O)O[C@H]([C@H](C)C[C@@H]2CC[C@@H](OCCO)[C@H](OC)C2)CC(=O)[C@H](C)/C=C(\C)[C@@H](O)[C@@H](OC)C(=O)[C@H](C)C[C@H](C)/C=C/C=C/C=C/1C` [everolimus]: the fimtDNA entry in the test with 143B cells (100 nM everolimus) is “decreased”.
On to `CC1(C)CC(NC(=O)C[P+](c2ccccc2)(c2ccccc2)c2ccccc2)CC(C)(C)N1[O]` [mito-TEMPO], for which, in the test on 143B cells (50 nM mito-TEMPO), the fimtDNA entry was “decreased”. The ISG expression entry with EndoG−/− MEFs [1] (Mito-TEMPO (10 μM), 3 days) is reported as “reduced”. In the test on EndoG−/− MEFs [3], the mROS result is “reduced”.
As for “VDAC1 N-terminal mutant peptide: VDAC1 N-terminal peptide in which K12, R15, K20 were changed to Ala (MAVPPTYADLGASAADVFTAGYGFGL)”, the “pull-down of mtDNA fragment” value in the test with mtDNA (120 bp) was “not”.
